Patent publication US20250034592A1, “NEUROPEPTIDE-[…] AND METHODS FOR THE TREATMENT OF EPILEPSY” (CHARITE - UNIVERSIT[…], priority 2016, published 2025)

Test system: pDyn deficient mice
Assay: Seizure threshold, pentylenetetrazole (PTZ) tail-vein infusion
Type: in vivo
Conditions: FIG. 6; for potency in seizure threshold test: compared with Dyn B
Text: Pentylenetetrazole is an inhibitor of GABAA receptors and induces seizures upon injection into the tail vein. pDyn deficient animals display a reduce seizure threshold compared to wild-type mice. […] From this, we expect an early onset of the effect of gene therapy and a lower number of vectors needed per patient.
The seizure threshold is a measure for the susceptibility to develop seizures. The resistance against seizure-inducing agents or stimuli is used as readout in animals. Infusion of pentylenetetrazole, a GABAA receptor antagonist, into the tail vein of rodents is an accepted method to measure the seizure threshold. […] This can be rescued by kappa opioid receptors agonists.
Seizure threshold was determined by pentylenetetrazole (PTZ) (see FIG. 6) tail-vein infusion on freely moving pDyn deficient mice at a rate of 100 μl/min ([…] PTZ in saline, pH 7.4). […] The seizure threshold dose was calculated from the infused volume in relation to body weight. Dyn B or modified variants thereof were dissolved in DMSO and diluted to the final dosages in saline containing final concentrations of 10% DMSO, 3% Tween 80. 3 μl of peptide-solution were applied 30 min. before tail-vein infusion under mild sevoflurane anaesthesia into the cisterna magna. The following peptides were tested: Dyn B=SEQ ID No. 8, Dyn B G3A=SEQ ID 10 No. 11 wherein Z at position 3 is alanine, Dyn B G3A+Q8A=SEQ ID No. 11 wherein Z at position 3 is alanine and Z at position 8 of SEQ ID No. 11 is alanine, Dyn B Q8A=SEQ ID No. 11 wherein Z at position 8 is alanine.

Row | Substance | potency in seizure threshold test | seizure threshold (peptide applied into cisterna magna 30 min before)
1 | Dyn B G3A+Q8A: SEQ ID No. 11 wherein Z at position 3 is alanine and Z at position 8 is alanine (YGAFLRRAFKVVT; VARIANT 3 Any amino acid; VARIANT 8 Any amino acid; listed as Homo sapiens) | higher potency | –
2 | Dyn B G3A: SEQ ID No. 11 (YGZFLRRZFKVVT) wherein Z at position 3 is alanine (YGAFLRRXFKVVT; VARIANT 3 Any amino acid; VARIANT 8 Any amino acid; listed as Homo sapiens) | higher potency | –
3 | Dynorphin B [Dyn B, reference compound] | – | rescued
